Tests used:
IPOHE = assay: Preemergence herbicidal evaluation; assay type: in vivo
Experimental: (§1) The preemergence and postemergence herbicidal properties of certain compounds of the present invention are compared with certain compounds disclosed in U.S. Pat. Nos. 5,484,763 and 5,523,278. The evaluations are performed as described in Examples 185 and 186. Data in Tables V and VI are reported by the compound number given in Example 185 for the compounds of this invention or by comparative compound letter for the compounds disclosed in U.S. Pat. Nos. 5,484,763 and 5,523,278.

ZEAMX = assay: Preemergence herbicidal evaluation; assay type: in vivo; set-up: scale not given here
Experimental: as §1

TRZAWR = assay: Preemergence herbicidal evaluation; assay type: in vivo; set-up: scale not given here
Experimental: as §1

GALAP = assay: Preemergence herbicidal evaluation; assay type: in vivo; set-up: scale not given here
Experimental: as §1

ECHCG = assay: Preemergence herbicidal evaluation; assay type: in vivo; set-up: scale not given here
Experimental: as §1

ABUTH = assay: Preemergence herbicidal evaluation; assay type: in vivo; set-up: scale not given here
Experimental: as §1

CHEAL = assay: Preemergence herbicidal evaluation; assay type: in vivo; set-up: scale not given here
Experimental: as §1

AMBEL = assay: Preemergence herbicidal evaluation; assay type: in vivo; set-up: scale not given here
Experimental: as §1

CASOB = assay: Preemergence herbicidal evaluation; assay type: in vivo; set-up: scale not given here
Experimental: as §1

GLXMAW = assay: Preemergence herbicidal evaluation; assay type: in vivo; set-up: scale not given here
Experimental: as §1

SETVI = assay: Preemergence herbicidal evaluation; assay type: in vivo; set-up: scale not given here
Experimental: as §1

ORYSAT = assay: Preemergence herbicidal evaluation; assay type: in vivo, Oryza sativa; set-up: scale not given here
Experimental: as §1

[1] = tested on: Sicklepod, Cassia obtusifolia; assay: Preemergence herbicidal evaluation, CASOB; assay type: in vivo, L.; conditions: 0.2500 kg/ha
In short: (§2)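 Seeds sown in potting soil in cups, then sprayed preemergence with compound in aqueous acetone at about 0.0156 to 0.500 kg per hectare. Greenhouse-grown; rated visually 4–5 weeks after treatment on a 0–9 scale (stand, vigor, malformation, size, chlorosis, appearance) versus untreated control.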

[2] = tested on: Foxtail, Green, Setaria viridis; assay: Preemergence herbicidal evaluation, SETVI; assay type: in vivo, (L.) Beau; conditions: 0.2500 kg/ha
In short: as §2

[3] = tested on: Barnyardgrass, Echinochloa crus-galli; assay: Preemergence herbicidal evaluation, ECHCG; assay type: in vivo, (L.) Beau; conditions: 0.2500 kg/ha
In short: as §2

[4] = tested on: Morningglory, Ivyleaf, Ipomoea hederacea; assay: Preemergence herbicidal evaluation, IPOHE; assay type: in vivo, (L.) Jacq.; conditions: 0.2500 kg/ha
In short: as §2

[5] = tested on: Rice, Tebonnet, Oryza sativa; assay: Preemergence herbicidal evaluation, ORYSAT; assay type: in vivo, (L.) Tebonnet; conditions: 0.2500 kg/ha
In short: as §2

[6] = tested on: Lambsquarters, Common, Chenopodium album; assay: Preemergence herbicidal evaluation, CHEAL; assay type: in vivo, L.; conditions: 0.2500 kg/ha
In short: as §2

[7] = tested on: Barnyardgrass, Echinochloa crus-galli; assay: Postemergence herbicidal evaluation, ECHCG; assay type: in vivo, (L.) Beau; conditions: 0.0630 kg/ha
In short: (§3)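 Seedlings grown about two weeks were sprayed with compound in 50/50 acetone/water containing 0.5% TWEEN 20 at rates equivalent to about 0.0157–0.500 kg/ha, nozzle at 40 psi. Injury was rated visually 0–9 versus control four to five weeks after treatment; replicate tests averaged.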

[8] = tested on: Soybean, Williams, Glycine max; assay: Preemergence herbicidal evaluation, GLXMAW; assay type: in vivo, (L.) Merr. cv Williams; conditions: 0.2500 kg/ha
In short: as §2

[9] = tested on: Ragweed, Common, Ambrosia artemisifolia; assay: Preemergence herbicidal evaluation, AMBEL; assay type: in vivo, L.; conditions: 0.2500 kg/ha
In short: as §2

[10] = tested on: Soybean, Williams, Glycine max; assay: Postemergence herbicidal evaluation, GLXMAW; assay type: in vivo, (L.) Merr. cv Williams; conditions: 0.0630 kg/ha
In short: as §3

[11] = tested on: Foxtail, Green, Setaria viridis; assay: Postemergence herbicidal evaluation, SETVI; assay type: in vivo, (L.) Beau; conditions: 0.0630 kg/ha
In short: as §3

[12] = tested on: Velvetleaf, Abutilon theophrasti; assay: Postemergence herbicidal evaluation, ABUTH; assay type: in vivo, Medic.; conditions: 0.0630 kg/ha
In short: as §3

[13] = tested on: Morningglory, Ivyleaf, Ipomoea hederacea; assay: Postemergence herbicidal evaluation, IPOHE; assay type: in vivo, (L.) Jacq.; conditions: 0.0630 kg/ha
In short: as §3

[14] = tested on: Rice, Tebonnet, Oryza sativa; assay: Postemergence herbicidal evaluation, ORYSAT; assay type: in vivo, (L.) Tebonnet; conditions: 0.0630 kg/ha
In short: as §3

[15] = tested on: Ragweed, Common, Ambrosia artemisifolia; assay: Postemergence herbicidal evaluation, AMBEL; assay type: in vivo, L.; conditions: 0.0630 kg/ha
In short: as §3

[16] = tested on: Wheat, Winter, cv Riband, Triticum aestivum; assay: Preemergence herbicidal evaluation, TRZAWR; assay type: in vivo; conditions: 0.2500 kg/ha
In short: as §2

Corn, Field, Zea mays [17] = assay: Preemergence herbicidal evaluation, ZEAMX; assay type: in vivo, L.; conditions: 0.2500 kg/ha
In short: as §2

Corn, Field, Zea mays [18] = assay: Postemergence herbicidal evaluation, ZEAMX; assay type: in vivo, L.; conditions: 0.0630 kg/ha
In short: as §3

Galium, Galium aparine [19] = assay: Preemergence herbicidal evaluation, GALAP; assay type: in vivo; conditions: 0.2500 kg/ha
In short: as §2

Galium, Galium aparine [20] = assay: Postemergence herbicidal evaluation, GALAP; assay type: in vivo; conditions: 0.0630 kg/ha
In short: as §3

[21] = tested on: Velvetleaf, Abutilon theophrasti; assay: Preemergence herbicidal evaluation, ABUTH; assay type: in vivo, Medic.; conditions: 0.2500 kg/ha
In short: as §2

[22] = tested on: Wheat, Winter, cv Riband, Triticum aestivum; assay: Postemergence herbicidal evaluation, TRZAWR; assay type: in vivo; conditions: 0.0630 kg/ha
In short: as §3

[23] = tested on: Sicklepod, Cassia obtusifolia; assay: Postemergence herbicidal evaluation, CASOB; assay type: in vivo, L.; conditions: 0.0630 kg/ha
In short: as §3

[24] = tested on: Lambsquarters, Common, Chenopodium album; assay: Postemergence herbicidal evaluation, CHEAL; assay type: in vivo, L.; conditions: 0.0630 kg/ha
In short: as §3

CN(C)C(=O)c1nsc2ccc(-n3c(=O)cc(C(F)(F)F)n(C)c3=O)cc12 [Compound 329, 1,2-Benzisothiazole-3-carboxamide,5-[3,6-dihydro-3-methyl-2,6-dioxo-4-(trifluoromethyl)-1(2H)-pyrimidinyl]-N,N-dimethyl-]
0.5: herbicidal effect rating (CASOB; 0.0156-0.0160 kg/ha)
0.0: herbicidal effect rating (ECHCG; 0.0156-0.0160 kg/ha)
4.5: herbicidal effect rating (ECHCG; 0.0620-0.0630 kg/ha)
1.0: herbicidal effect rating (TRZAWR; 0.0156-0.0160 kg/ha) | herbicidal effect rating (GALAP; 0.0156-0.0160 kg/ha) | herbicidal effect rating (GALAP; 0.0313-0.0320 kg/ha) | herbicidal effect rating (ECHCG; 0.0313-0.0320 kg/ha)
7.5: herbicidal effect rating (ZEAMX; 0.2500 kg/ha) | herbicidal effect rating (GLXMAW; 0.0620-0.0630 kg/ha)
4.0: herbicidal effect rating (IPOHE; 0.0313-0.0320 kg/ha) | herbicidal effect rating (TRZAWR; 0.0620-0.0630 kg/ha)
1.5: herbicidal effect rating (ZEAMX; 0.0156-0.0160 kg/ha) | herbicidal effect rating (SETVI; 0.0156-0.0160 kg/ha) | herbicidal effect rating (ORYSAT; 0.0156-0.0160 kg/ha)
7.0: herbicidal effect rating (ZEAMX; 0.1250 kg/ha) | herbicidal effect rating (TRZAWR; 0.2500 kg/ha) | herbicidal effect rating (ECHCG; 0.1250 kg/ha) | herbicidal effect rating (AMBEL; 0.0313-0.0320 kg/ha) | herbicidal effect rating (CASOB; 0.0620-0.0630 kg/ha)
6.5: herbicidal effect rating (ZEAMX; 0.0620-0.0630 kg/ha) | herbicidal effect rating (ORYSAT; 0.1250 kg/ha)
3.0: herbicidal effect rating (AMBEL; 0.0156-0.0160 kg/ha)
5.0: herbicidal effect rating (GLXMAW; 0.0156-0.0160 kg/ha) | herbicidal effect rating (ORYSAT; 0.0620-0.0630 kg/ha)
6.0: herbicidal effect rating (TRZAWR; 0.1250 kg/ha) | herbicidal effect rating (GALAP; 0.0620-0.0630 kg/ha) | herbicidal effect rating (GLXMAW; 0.0313-0.0320 kg/ha)
8.0: herbicidal effect rating (IPOHE; 0.0620-0.0630 kg/ha) | herbicidal effect rating (AMBEL; 0.0620-0.0630 kg/ha) | herbicidal effect rating (GLXMAW; 0.2500 kg/ha) | herbicidal effect rating (ORYSAT; 0.2500 kg/ha)
2.0: herbicidal effect rating (TRZAWR; 0.0313-0.0320 kg/ha) | herbicidal effect rating (CASOB; 0.0313-0.0320 kg/ha)
8.5: herbicidal effect rating (CASOB; 0.2500 kg/ha)
2.5: herbicidal effect rating (IPOHE; 0.0156-0.0160 kg/ha) | herbicidal effect rating (ZEAMX; 0.0313-0.0320 kg/ha) | herbicidal effect rating (SETVI; 0.0313-0.0320 kg/ha) | herbicidal effect rating (ORYSAT; 0.0313-0.0320 kg/ha)
9.0: herbicidal effect rating (IPOHE; 0.1250 kg/ha) | herbicidal effect rating (IPOHE; 0.2500 kg/ha) | herbicidal effect rating (GALAP; 0.1250 kg/ha) | herbicidal effect rating (GALAP; 0.2500 kg/ha) | herbicidal effect rating (ECHCG; 0.2500 kg/ha) | herbicidal effect rating (ABUTH; 0.0156-0.0160 kg/ha) | herbicidal effect rating (ABUTH; 0.0313-0.0320 kg/ha) | herbicidal effect rating (ABUTH; 0.0620-0.0630 kg/ha) | herbicidal effect rating (ABUTH; 0.1250 kg/ha) | herbicidal effect rating (ABUTH; 0.2500 kg/ha) | herbicidal effect rating (CHEAL; 0.0156-0.0160 kg/ha) | herbicidal effect rating (CHEAL; 0.0313-0.0320 kg/ha) | herbicidal effect rating (CHEAL; 0.0620-0.0630 kg/ha) | herbicidal effect rating (CHEAL; 0.1250 kg/ha) | herbicidal effect rating (CHEAL; 0.2500 kg/ha) | herbicidal effect rating (AMBEL; 0.1250 kg/ha) | herbicidal effect rating (AMBEL; 0.2500 kg/ha) | herbicidal effect rating (CASOB; 0.1250 kg/ha) | herbicidal effect rating (GLXMAW; 0.1250 kg/ha) | herbicidal effect rating (SETVI; 0.0620-0.0630 kg/ha) | herbicidal effect rating (SETVI; 0.1250 kg/ha) | herbicidal effect rating (SETVI; 0.2500 kg/ha)

COC(=O)C(C)Oc1ccc(C(C)C)cc1-c1nsc2ccc(-n3c(=O)cc(C(F)(F)F)n(C)c3=O)cc12 (stereo not drawn) [Compound 30, Methyl 2-{2-{5-[3,6-dihydro-3-methyl-4-(trifluoromethyl)-2,6-dioxo-1(2H)-pyrimidinyl]-1,2-benzisothiazol-3-yl}-4-isopropylphenoxy}propionate]
6.0: herbicide rating (0-9) [5] | herbicide rating (0-9) [8]
9.0: herbicide rating (0-9) [1] | herbicide rating (0-9) [2] | herbicide rating (0-9) [4] | herbicide rating (0-9) [6] | herbicide rating (0-9) [7] | herbicide rating (0-9) [9] | herbicide rating (0-9) [11] | herbicide rating (0-9) [12] | herbicide rating (0-9) [13] | herbicide rating (0-9) [15] | herbicide rating (0-9) (Corn, Field, Zea mays [18]) | herbicide rating (0-9) [21] | herbicide rating (0-9) [23] | herbicide rating (0-9) [24]
5.0: herbicide rating (0-9) (Galium, Galium aparine [20])
7.0: herbicide rating (0-9) [3] | herbicide rating (0-9) [10] | herbicide rating (0-9) [16] | herbicide rating (0-9) (Corn, Field, Zea mays [17]) | herbicide rating (0-9) (Galium, Galium aparine [19])
7.5: herbicide rating (0-9) [14] | herbicide rating (0-9) [22]

COC(=O)COc1c(C)cc(C)cc1-c1nsc2ccc(-n3c(=O)cc(C(F)(F)F)n(C)c3=O)cc12 [Compound 26, Methyl {{6-{5-[3,6-dihydro-3-methyl-2,6-dioxo-4-(trifluoromethyl)-1(2H)-pyrimidinyl]-1,2-benzisothiazol-3-yl}-2,4-xylyl}oxy}acetate]
8.0: herbicide rating (0-9) [22]
4.0: herbicide rating (0-9) (Galium, Galium aparine [19])
5.0: herbicide rating (0-9) [5] | herbicide rating (0-9) [16]
7.5: herbicide rating (0-9) [10]
9.0: herbicide rating (0-9) [1] | herbicide rating (0-9) [2] | herbicide rating (0-9) [6] | herbicide rating (0-9) [7] | herbicide rating (0-9) [9] | herbicide rating (0-9) [11] | herbicide rating (0-9) [12] | herbicide rating (0-9) [13] | herbicide rating (0-9) [15] | herbicide rating (0-9) (Galium, Galium aparine [20]) | herbicide rating (0-9) [21] | herbicide rating (0-9) [24]
7.0: herbicide rating (0-9) [3] | herbicide rating (0-9) [4] | herbicide rating (0-9) (Corn, Field, Zea mays [17]) | herbicide rating (0-9) (Corn, Field, Zea mays [18])
2.0: herbicide rating (0-9) [14]
6.0: herbicide rating (0-9) [8] | herbicide rating (0-9) [23]
